Data from ChEMBL document CHEMBL5518160, “Progress in the development of TRPV1 small-molecule antagonists: Novel Strategies for pain management” (Eur J Med Chem, 2023).

Tests used:
[1] = molecular target: T1, Transient receptor potential cation channel subfamily V member 1 (Homo sapiens, UniProt Q8NER1); test: Antagonist activity at human TRPV1 expressed in HEK293 cells assessed as inhibition of capsaicin-induced increase in intracellular Ca2+ level by FLIPR-based Ca2+ assay; type: cell-based
[2] = molecular target: T2, Transient receptor potential cation channel subfamily V member 1 (Rattus norvegicus, UniProt O35433); test: Antagonist activity at rat TRPV1 assessed as inhibition of pH-induced increase in intracellular Ca2+ level; type: cell-based
T2 sequence (O35433 whole entry): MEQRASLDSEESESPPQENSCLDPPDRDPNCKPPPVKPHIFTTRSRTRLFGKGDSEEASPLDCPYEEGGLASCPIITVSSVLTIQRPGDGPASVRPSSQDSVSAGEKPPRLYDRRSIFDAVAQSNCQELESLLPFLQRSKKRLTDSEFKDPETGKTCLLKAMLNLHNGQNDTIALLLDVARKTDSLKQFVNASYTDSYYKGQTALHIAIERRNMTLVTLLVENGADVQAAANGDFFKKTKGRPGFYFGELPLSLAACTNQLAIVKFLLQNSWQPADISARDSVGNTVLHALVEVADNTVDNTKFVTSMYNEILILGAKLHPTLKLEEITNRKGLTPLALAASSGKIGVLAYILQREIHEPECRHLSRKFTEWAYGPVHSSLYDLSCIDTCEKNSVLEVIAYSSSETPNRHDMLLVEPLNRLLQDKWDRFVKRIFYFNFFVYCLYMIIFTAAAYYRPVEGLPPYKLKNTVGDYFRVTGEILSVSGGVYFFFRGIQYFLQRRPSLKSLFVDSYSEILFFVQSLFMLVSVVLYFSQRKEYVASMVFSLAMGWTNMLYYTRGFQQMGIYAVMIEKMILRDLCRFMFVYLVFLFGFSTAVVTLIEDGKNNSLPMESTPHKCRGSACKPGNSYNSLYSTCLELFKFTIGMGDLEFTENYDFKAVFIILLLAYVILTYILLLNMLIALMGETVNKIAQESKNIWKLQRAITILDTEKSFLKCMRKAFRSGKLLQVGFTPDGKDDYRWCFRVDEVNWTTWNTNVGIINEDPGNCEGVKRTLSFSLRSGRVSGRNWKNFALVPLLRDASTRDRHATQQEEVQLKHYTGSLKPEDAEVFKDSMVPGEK

[3] = molecular target: T1, Transient receptor potential cation channel subfamily V member 1; test: Antagonist activity at human TRPV1 assessed as inhibition of capsaicin-induced increase in intracellular Ca2+ level; type: cell-based
[4] = molecular target: T2, Transient receptor potential cation channel subfamily V member 1; test: Antagonist activity at rat TRPV1 expressed in CHO cells assessed as inhibition of pH-induced increase in intracellular Ca2+ level by fluorescence based analysis; type: cell-based
[5] = molecular target: T2, Transient receptor potential cation channel subfamily V member 1; test: Inhibition of rat TRPV1 assessed as inhibition of capsaicin-induced increase in intracellular Ca2+ level; type: cell-based
[6] = molecular target: T3, Prostaglandin G/H synthase 2 (Homo sapiens, UniProt P35354); test: Inhibition of COX-2 (unknown origin)
T3 sequence (P35354 whole entry): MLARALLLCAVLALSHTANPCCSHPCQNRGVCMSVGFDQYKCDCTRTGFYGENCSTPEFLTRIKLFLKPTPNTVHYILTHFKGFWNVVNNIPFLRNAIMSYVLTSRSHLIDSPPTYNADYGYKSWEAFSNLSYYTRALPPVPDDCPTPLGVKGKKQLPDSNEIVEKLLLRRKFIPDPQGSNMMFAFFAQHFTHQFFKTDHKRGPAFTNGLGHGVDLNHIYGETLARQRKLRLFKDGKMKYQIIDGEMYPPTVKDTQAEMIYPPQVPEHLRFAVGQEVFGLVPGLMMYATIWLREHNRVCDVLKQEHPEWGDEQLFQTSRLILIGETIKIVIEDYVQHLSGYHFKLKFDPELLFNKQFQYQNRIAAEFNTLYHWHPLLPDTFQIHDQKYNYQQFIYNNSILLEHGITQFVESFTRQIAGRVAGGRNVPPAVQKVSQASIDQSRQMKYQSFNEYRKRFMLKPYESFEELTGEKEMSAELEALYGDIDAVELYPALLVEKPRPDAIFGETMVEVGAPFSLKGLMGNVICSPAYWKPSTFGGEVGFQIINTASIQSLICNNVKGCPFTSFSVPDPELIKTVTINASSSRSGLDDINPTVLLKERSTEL

[7] = molecular target: T1, Transient receptor potential cation channel subfamily V member 1; test: Antagonist activity at human TRPV1 expressed in HEK293 cells assessed as inhibition of capsaicin-induced Ca2+ influx by fluorescence based assay; type: cell-based
[8] = molecular target: T1, Transient receptor potential cation channel subfamily V member 1; test: Antagonist activity at human TRPV1 expressed in HEK293 cells assessed as inhibition of capsaicin-induced increase in intracellular Ca2+ level incubated for 2 mins by scintillation counter analysis; type: cell-based
[9] = molecular target: T1, Transient receptor potential cation channel subfamily V member 1; test: Antagonist activity at human TRPV1 expressed in HEK293 cells assessed as inhibition of NADA-induced increase in intracellular Ca2+ level incubated for 2 mins by scintillation counter analysis; type: cell-based
[10] = molecular target: T1, Transient receptor potential cation channel subfamily V member 1; test: Antagonist activity at human TRPV1 assessed as inhibition of AITC-induced increase in intracellular Ca2+ level; type: cell-based
[11] = molecular target: T1, Transient receptor potential cation channel subfamily V member 1; test: Antagonist activity at human TRPV1 assessed as inhibition of pH-induced increase in intracellular Ca2+ level; type: cell-based
[12] = molecular target: T1, Transient receptor potential cation channel subfamily V member 1; test: Binding affinity to human TRPV1 assessed as inhibition constant
[13] = molecular target: T1, Transient receptor potential cation channel subfamily V member 1; test: Antagonist activity at human TRPV1
[14] = molecular target: T1, Transient receptor potential cation channel subfamily V member 1; test: Antagonist activity at capsaicin-induced human TRPV1 activation
[15] = species: Mus musculus; test: Antipruritic effect in mouse assessed as reduction in histamine-induced itching duration relative to control; type: functional; parameters: scale not given: the % may be the effect or the level left
[16] = Antagonist activity at Xenopus oocytes TRPV1 assessed as inhibition of capsaicin-induced increase in intracellular Ca2+ level; type: cell-based; conditions: Xenopus laevis

T1 sequence (Q8NER1 whole entry): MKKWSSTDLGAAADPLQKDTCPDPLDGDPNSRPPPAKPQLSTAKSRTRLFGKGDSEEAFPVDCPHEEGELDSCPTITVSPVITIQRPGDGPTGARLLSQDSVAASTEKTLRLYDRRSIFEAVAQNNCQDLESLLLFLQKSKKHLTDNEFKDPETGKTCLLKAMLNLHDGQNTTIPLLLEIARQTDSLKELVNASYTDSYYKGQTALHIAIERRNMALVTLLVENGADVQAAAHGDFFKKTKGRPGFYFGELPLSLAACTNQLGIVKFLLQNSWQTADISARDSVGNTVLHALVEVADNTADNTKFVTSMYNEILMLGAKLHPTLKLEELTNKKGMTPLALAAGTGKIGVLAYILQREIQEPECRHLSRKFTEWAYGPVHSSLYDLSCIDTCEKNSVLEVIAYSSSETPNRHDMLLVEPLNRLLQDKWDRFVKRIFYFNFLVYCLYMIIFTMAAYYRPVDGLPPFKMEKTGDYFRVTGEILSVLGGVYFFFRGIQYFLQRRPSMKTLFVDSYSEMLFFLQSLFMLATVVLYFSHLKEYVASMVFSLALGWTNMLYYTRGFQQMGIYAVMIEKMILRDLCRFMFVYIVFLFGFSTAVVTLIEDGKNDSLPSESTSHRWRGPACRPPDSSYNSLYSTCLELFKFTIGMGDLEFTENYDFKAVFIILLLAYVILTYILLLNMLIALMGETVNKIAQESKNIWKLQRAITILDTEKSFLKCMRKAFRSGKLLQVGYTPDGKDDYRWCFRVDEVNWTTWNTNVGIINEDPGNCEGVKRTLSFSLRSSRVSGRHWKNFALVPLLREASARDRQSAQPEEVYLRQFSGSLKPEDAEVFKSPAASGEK

## O=C(Nc1ccccc1Br)N[C@@H]1CCN(c2ccc(C(F)(F)F)cn2)C1 [SB-705498]
[1]
  IC50: 3 nM
[2]
  IC50: 6 nM

## O=C(C(c1ccccc1)N1C(=O)CCC1=O)N1CCN(c2cccc(C(F)(F)F)c2)CC1 (stereo unspecified)
[3]
  IC50: 45000 nM

## O=C1/C(=N\Nc2ccccc2)C(C(F)(F)C(F)(F)F)=NN1c1ccccc1
[4]
  IC50: 140 nM

## COc1cc(/C=C/C(=O)NS(=O)(=O)c2ccc(-n3nc(C(F)(F)F)cc3-c3ccc(C)cc3)cc2)ccc1O
[5]
  IC50: 140 nM
[6]
  IC50: 23 nM

## C=Cc1cc([C@@H](C)NC(=O)/C(C)=C/c2ccc(C(C)(C)C)cc2)ccc1NS(C)(=O)=O
[7]
  IC50: 22 nM

## CCC1(CC)CC(NC(=O)Nc2cccc3c(C)nccc23)c2cc(F)ccc2O1 (stereo unspecified)
[8]
  IC50: 19 nM
[9]
  IC50: 7 nM

## O=C1C[C@@H](c2ccc(O[C@@H]3O[C@H](CO)[C@@H](O)[C@H](O)[C@H]3O)cc2)Oc2cc(O)ccc21 [LIQUIRITIN]
[3]
  IC50: 9800 nM
[10]
  IC50: 16200 nM

## COc1cc(CNC(=O)COC(=O)/C=C(\C)CC=C(C)C)c(I)cc1O
[3]
  IC50: 90 nM

## O=C(Nc1ccc(Br)cc1)[C@@H]1CCCN1C(=O)Nc1cccc2cnccc12
[3]
  IC50: 84 nM
[11]
  IC50: 313 nM

## CN(C)C1(Cc2ccccc2)CCN(c2cc(C(F)(F)F)ccc2CNC(=O)Nc2cccc3ncccc23)CC1
[12]
  Ki: 32 nM
[13]
  IC50: 10.8 nM

## Cc1cc(C)nc(NC(=O)N2CCN(Cc3ccccc3N3CCCC3)CC2)c1
[14]
  IC50: 9.8 nM

## COc1cc(C(=O)NS(=O)(=O)c2ccc(-n3nc(C(F)(F)F)cc3-c3ccc(C)cc3)cc2)ccc1O
[6]
  IC50: 11 nM

## CCCCCCCCCCCC(=O)OCC(=O)NCc1cc(OC)c(O)cc1I
[15]
  Activity: <1%

## CC1CCN(c2nc(C(F)(F)F)ccc2CNC(=O)Cc2c(F)cccc2Cl)CC1
[3]
  IC50: 2.6 nM

## C[C@H]1O[C@H](O[C@H]2[C@H](Oc3cc(O)c4c(c3)O[C@H](c3ccc(O)cc3)CC4=O)O[C@H](CO)[C@@H](O)[C@@H]2O)[C@H](O)[C@@H](O)[C@H]1O
[16]
  IC50: 33300 nM
